Measurements published in article PMC10899790, “A bromodomain-independent mechanism of gene regulation by the BET inhibitor JQ1: direct activation of nuclear receptor PXR” (Nucleic Acids Research, 2023).
Entries after “also recorded” stand apart in the source; their conditions may differ.

Experiments:
human PXR = target: T1, human PXR (Homo sapiens, UniProt O75469); assay: PXR transactivation assay (CYP3A4-luciferase reporter)
T1 sequence (O75469 1-434): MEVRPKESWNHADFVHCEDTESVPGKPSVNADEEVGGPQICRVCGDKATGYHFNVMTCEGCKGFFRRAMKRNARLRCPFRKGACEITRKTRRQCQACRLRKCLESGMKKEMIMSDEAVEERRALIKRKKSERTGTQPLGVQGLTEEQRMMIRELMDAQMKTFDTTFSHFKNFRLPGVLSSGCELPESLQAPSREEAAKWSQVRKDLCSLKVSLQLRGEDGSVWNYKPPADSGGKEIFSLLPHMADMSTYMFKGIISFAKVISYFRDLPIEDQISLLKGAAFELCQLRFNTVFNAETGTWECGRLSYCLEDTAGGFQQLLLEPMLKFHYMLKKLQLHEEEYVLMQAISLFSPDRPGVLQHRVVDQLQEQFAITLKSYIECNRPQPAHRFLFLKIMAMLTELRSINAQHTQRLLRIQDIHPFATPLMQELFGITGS
Experimental: Assays were performed similarly as previously described with minor modifications ([30–32]). HepG2 cells (7.5 × 10^5/well) were plated in six-well tissue culture-treated plates. The following day, cells were co-transfected with pGL3-CYP3A4-luc (2 μg/well), pRL-CMV (200 ng/well) and 100 ng/well of either empty vector (pcDNA3), pcDNA3-FLAG-PXR, pCMV6-mPXR or pGL4.53-PGK-PXR using Lipofectamine 3000 (Thermo Fisher Scientific). Twenty-four hours after transfection, cells were trypsinized and suspended in phenol red-free DMEM (Thermo Fisher Scientific) supplemented with 5% charcoal/dextran-treated FBS (HyClone), and 1 × 10^4 cells/well in 25 μl media were added to white 384-well plates. […] After 24 h, the Dual-Glo Luciferase Assay System (Promega) and EnVision microplate reader (PerkinElmer) were used to measure firefly and Renilla luciferase activities. CMV-driven Renilla luciferase was used as an indicator of general transcriptional modulation by the test compounds and is plotted as fold change (FC) relative to DMSO controls. Assays utilizing pGL4.54[luc2/TK], pGL4.53[luc2/PGK], or pGL4.13[luc2/SV40] were similarly performed and normalized. For the PXR-responsive CYP3A4-luciferase reporter, the measured relative light units (RLU) were normalized for each well using equation (1),
RLUT0901317 represents the measured RLU from wells containing 1 μM T0901317. For mPXR assays, 5 μM PCN was used in place of T0901317.

PXR LBD [1] = target: T2, PXR LBD (Homo sapiens, UniProt O75469); assay: TR-FRET PXR LBD NCoR recruitment and release assays; type: biochemical; conditions: TR-FRET in the presence of 1 μM SPA70
T2 construct: GST-PXR LBD protein (cat. # PV4841) were purchased from Thermo Fisher Scientific; purchased Thermo Fisher Scientific PV4841
T2 sequence (O75469 146-433 limits assumed): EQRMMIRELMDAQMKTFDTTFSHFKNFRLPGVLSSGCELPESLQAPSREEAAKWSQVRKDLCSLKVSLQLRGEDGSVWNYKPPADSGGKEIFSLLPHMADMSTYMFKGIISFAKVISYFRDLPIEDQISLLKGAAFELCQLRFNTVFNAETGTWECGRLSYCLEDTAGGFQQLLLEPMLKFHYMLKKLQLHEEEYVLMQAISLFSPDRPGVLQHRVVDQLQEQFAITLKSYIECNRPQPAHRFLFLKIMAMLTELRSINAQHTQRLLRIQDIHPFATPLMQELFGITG
Experimental: The TR-FRET PXR LBD NCoR recruitment assay was similarly performed, but with 500 nM FAM-NCoR peptide. Data were normalized using equations (2) and (3) with 10 μM SPA70 in place of T0901317 as the control. For the NCoR release assay, all wells contained 1 μM SPA70 to induce PXR LBD interaction with NCoR, and dose responses of agonists were used to disrupt the PXR LBD/SPA70/NCoR complex. In the release assay, 1 μM SPA70 alone served as the 100% control, and DMSO alone served as the 0% control. NCoR release assay wells contained 0.4% DMSO due to the two-compound addition.

PXR LBD [2] = target: T2, PXR LBD; assay: TR-FRET PXR LBD ligand binding assay; conditions: TR-FRET competition with BODIPY FL vindoline
Experimental: The TR-FRET PXR LBD ligand binding assay measures binding of PXR ligands by competition with a fluorescently labeled ligand (BODIPY FL vindoline) (Supplementary Figure S3) and was performed as previously described with minor modifications ([24]). […] BODIPY FL vindoline (15 μl/well, 133.3 nM in assay buffer) was dispensed into 384-well low-volume black assay plates. An Echo 650 Acoustic Liquid Handler then dispensed 60 nl/well of compound stocks or DMSO.

PXR = assay: RNA induction in HepaRG: PXR RNA (RT-qPCR); type: cell-based, human; conditions: differentiated HepaRG, 24 h; FC relative to DMSO
Experimental: (§1) Experiments with HepaRG cells were conducted similarly to previously described ([45]), with modifications. HepaRG cells were seeded in collagen-coated 24-well plates at 5 × 10^5 cells/well in HCM. Cells were differentiated for two weeks with HCM containing 2% DMSO. The cells were then treated with the respective chemicals for 24 h in HCM. The final DMSO concentration for the treatment was 0.5%. Total RNA was isolated from cells with Maxwell 16 LEV SimplyRNA Tissue Kits (Promega), and cDNA was generated from 250 ng of RNA with the SuperScript VILO cDNA Synthesis Kit (Thermo Fisher Scientific). Quantitative real-time polymerase chain reaction (RT-qPCR) was conducted with 2 μl of cDNA using TaqMan Fast Advanced Master Mix (Applied Biosystems) in an Applied Biosystems 7500 Fast Real-Time PCR System. TaqMan gene expression assays specific for CYP3A4 (Hs00604506_m1), PXR (Hs01114267_m1), MYC (Hs00153408_m1) and RNA18S (Hs03928990_g1) were purchased from Thermo Fisher Scientific. Fold induction values were calculated according to the 2^−ΔΔCt method, where ΔCt represents the differences in cycle threshold numbers between the target gene and reference gene and ΔΔCt represents the relative change in these differences between the control and treatment groups ([46]). RNA18S was used as the reference gene for relative quantification of all other genes.

PGK promoter = PGK promoter firefly luciferase reporter; type: cell-based, human; conditions: HepG2, 24 h
CYP3A4 [3] = conditions: cited from earlier work
CYP3A4 [4] = assay: RNA induction in HepaRG: CYP3A4 mRNA (RT-qPCR); conditions: differentiated HepaRG, 24 h
Experimental: as §1

In the case of Cc1sc2c(c1C)C(c1ccc(Cl)cc1)=N[C@@H](CC(=O)OC(C)(C)C)c1nnc(C)n1-2 [JQ1, (+)-JQ1], the “activation of CYP3A4-luciferase reporter with PXR expressed from a PGK promoter” value (human PXR; HepG2, 24 h, PGK-driven PXR) is reported as “retained activation of the CYP3A4-luciferase reporter”, the “activation of PXR-responsive CYP3A4-luciferase reporter” value (human PXR; human) is reported as “activated the CYP3A4-luciferase reporter with potency comparable to that of the prototypical PXR agonist rifampicin (Figure 2A) but with slightly reduced efficacy” and the “inhibition of SPA70-mediated NCoR recruitment (NCoR release)” value (PXR LBD [1]) is reported as “inhibited SPA70-mediated NCoR recruitment”. For the same compound, the “binding to purified PXR LBD (binding potency)” value (PXR LBD [2]) was “comparable to rifampicin in binding potencies; also recorded: JQ1 > birabresib > CPI-203”, the “PXR RNA expression” value (PXR) was “greatly reduced PXR RNA” and the “PGK promoter-driven luciferase expression” value (PGK promoter) was “not positively modulated”. The CYP3A4 substrate (CYP3A4 [3]) was “is a CYP3A4 substrate”, the “endogenous CYP3A4 mRNA expression” value (CYP3A4 [4]; FC relative to DMSO) was “modestly induced CYP3A4 mRNA” and the “endogenous CYP3A4 mRNA expression on co-treatment with SPA70” value (CYP3A4 [4]; co-treated with SPA70) was “largely diminished”.
